According to PubChem BioAssay AID330 (DTP/NCI, 2004):
Where “and” joins values, the source holds several entries; their conditions need not be identical. Identical values can stand only once. Toxic doses and inconclusive results are not listed. Rule for the calls: active = survival T/C of 150% or more; inactive = T/C below 125% in these data. Peptide text beside a SMILES is read from it. * marks the point of attachment. Cbz = O=C(OCc1ccccc1)*

Tested on: P388 leukemia ip, CD2F1 mice, survival T/C
Experiment: NCI In Vivo Anticancer Drug Screen. Data for tumor model P388 Leukemia (intraperitoneal) in CD2F1 (CDF1) mice
Conditions: endpoint: median survival time, higher = longer survival
Method in brief: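 Mice carrying the transplanted tumor received test compound or vehicle. Survival was recorded in each group, and the value is the treated-group measurement divided by that of the vehicle-treated control group.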

[1] = dose: 50.0 mg/kg/injection, schedule: Q01DX009 (ip), vehicle: Klucel (hydroxypropylcellulose) (HPC)
[2] = dose: 100.0 mg/kg/injection, schedule: Q01DX009 (ip), vehicle: Klucel (hydroxypropylcellulose) (HPC)
[3] = dose: 200.0 mg/kg/injection, schedule: Q01DX009 (ip), vehicle: Klucel (hydroxypropylcellulose) (HPC)
[4] = dose: 25.0 mg/kg/injection, schedule: Q01DX009 (ip), vehicle: saline with Tween-80
[5] = dose: 50.0 mg/kg/injection, schedule: Q01DX009 (ip), vehicle: saline with Tween-80
[6] = dose: 100.0 mg/kg/injection, schedule: Q01DX009 (ip), vehicle: saline with Tween-80
[7] = dose: 200.0 mg/kg/injection, schedule: Q01DX009 (ip), vehicle: saline with Tween-80
[8] = dose: 60.0 mg/kg/injection, schedule: Q01DX005 (ip), vehicle: saline with Tween-80
[9] = dose: 120.0 mg/kg/injection, schedule: Q01DX005 (ip), vehicle: saline with Tween-80
[10] = dose: 50.0 mg/kg/injection, schedule: Q01DX009 (ip), vehicle: saline
[11] = dose: 100.0 mg/kg/injection, schedule: Q01DX009 (ip), vehicle: saline
[12] = dose: 200.0 mg/kg/injection, schedule: Q01DX009 (ip), vehicle: saline
[13] = dose: 60.0 mg/kg/injection, schedule: Q01DX005 (ip), vehicle: Klucel (hydroxypropylcellulose) (HPC)
[14] = dose: 50.0 mg/kg/injection, schedule: Q01DX005 (ip), vehicle: saline
[15] = dose: 100.0 mg/kg/injection, schedule: Q01DX005 (ip), vehicle: saline
[16] = dose: 50.0 mg/kg/injection, schedule: Q01DX005 (ip), vehicle: Klucel (hydroxypropylcellulose) (HPC)
[17] = dose: 100.0 mg/kg/injection, schedule: Q01DX005 (ip), vehicle: Klucel (hydroxypropylcellulose) (HPC)
[18] = dose: 200.0 mg/kg/injection, schedule: Q01DX005 (ip), vehicle: Klucel (hydroxypropylcellulose) (HPC)
[19] = dose: 240.0 mg/kg/injection, schedule: Q01DX005 (ip), vehicle: Klucel (hydroxypropylcellulose) (HPC)

Measured: T/C

CCCCCCCCNC(=O)OCc1c2ccccc2cc2ccccc12
inactive: [1] 98 % of control | [2] 101 % of control | [3] 98 % of control

CC(=O)OC(C)(C)/N=N/C(C)(C)OC(C)=O
inactive: [4] 103 % of control | [5] 101 % of control | [6] 111 % of control | [7] 100 % of control

CCN(CC)N=Nc1ccc(NC(C)=O)cc1
inactive: dose: 6.25 mg/kg/injection, schedule: Q04DX003 (ip), vehicle: Klucel (hydroxypropylcellulose) (HPC) 102 % of control | dose: 12.5 mg/kg/injection, schedule: Q04DX003 (ip), vehicle: Klucel (hydroxypropylcellulose) (HPC) 101 % of control | dose: 25.0 mg/kg/injection, schedule: Q04DX003 (ip), vehicle: Klucel (hydroxypropylcellulose) (HPC) 102 % of control

O=C(O)/C=C\C(=O)O.OO.[O]=[V]
inactive: dose: 3.75 mg/kg/injection, schedule: Q01DX005 (ip), vehicle: saline with Tween-80 100 % of control | dose: 15.0 mg/kg/injection, schedule: Q01DX005 (ip), vehicle: saline with Tween-80 109 % of control

CC1=C(Sc2ccc(Br)cc2)C(N)Nc2nc(N)nc(N)c21 (configuration not stated)
inactive: [8] 89 % of control | [9] 89 % of control

O=C(O)c1cc([N+](=O)[O-])cc([N+](=O)[O-])c1Sc1ncccn1
inactive: [10] 96 % of control | [11] 100 % of control | [12] 101 % of control

CC(C)COCSCC(NC(=O)CNC(=O)C(Cc1ccccc1)NC(=O)CNC(=O)C(CSC(c1ccccc1)(c1ccccc1)c1ccccc1)NC(c1ccccc1)(c1ccccc1)c1ccccc1)C(=O)O (configuration not stated)
inactive: dose: 15.0 mg/kg/injection, schedule: Q01DX005 (ip), vehicle: Klucel (hydroxypropylcellulose) (HPC) 97 % of control | dose: 30.0 mg/kg/injection, schedule: Q01DX005 (ip), vehicle: Klucel (hydroxypropylcellulose) (HPC) 96 % of control | [13] 88 % of control and 94 % of control

COc1ccc(OC(N)=O)c2ccccc12
inactive: dose: 25.0 mg/kg/injection, schedule: Q01DX001 (ip), vehicle: Klucel (hydroxypropylcellulose) (HPC) 100 % of control | dose: 50.0 mg/kg/injection, schedule: Q01DX001 (ip), vehicle: Klucel (hydroxypropylcellulose) (HPC) 100 % of control | dose: 100.0 mg/kg/injection, schedule: Q01DX001 (ip), vehicle: Klucel (hydroxypropylcellulose) (HPC) 108 % of control

CN(C)P1(=O)NCC(C)(C)CO1 (configuration not stated)
inactive: [14] 104 % of control | [15] 96 % of control | dose: 200.0 mg/kg/injection, schedule: Q01DX005 (ip), vehicle: saline 96 % of control

Cc1cccc2c(=O)[nH]c(=O)[nH]c12
inactive: [16] 93 % of control | [17] 89 % of control | [18] 89 % of control

CCCCCCCC[As](CCCCCCCC)SCC1OC(OC(C)=O)C(OC(C)=O)C(OC(C)=O)C1OC(C)=O (configuration not stated)
inactive: [5] 101 % of control | [6] 96 % of control | [7] 99 % of control

Cc1cc(=O)n(-c2ccccc2)c(=O)[nH]1
inactive: [10] 104 % of control | [11] 111 % of control | [12] 111 % of control

CC(C)(C)SS(=O)(=O)C(C)(C)C
inactive: [13] 103 % of control | dose: 120.0 mg/kg/injection, schedule: Q01DX005 (ip), vehicle: Klucel (hydroxypropylcellulose) (HPC) 106 % of control | [19] 105 % of control

N#CC1=CCc2ccccc2N1C(=O)Oc1ccccc1
inactive: [8] 97 % of control | [9] 88 % of control | dose: 240.0 mg/kg/injection, schedule: Q01DX005 (ip), vehicle: saline with Tween-80 88 % of control

O=C(O)C(CO)NC(=O)C1CCCN1C(=O)OCc1ccccc1 (stereo not drawn) (Cbz-Pro-Ser-OH; configuration not given here)
inactive: [14] 96 % of control | [15] 93 % of control

CCOC(=O)c1ccc(NC(CCSc2ccccc2)=NC(C)(C)C)cc1
inactive: [5] 103 % of control | [6] 107 % of control | [7] 94 % of control

CN(c1ccccc1)S(=O)c1ccccc1 (configuration not stated)
inactive: [4] 94 % of control | [5] 103 % of control | [6] 110 % of control

CCOc1ccc2nc3cc(N=Nc4ccc5c(N)c6cc(OCC)ccc6nc5c4)ccc3c(N)c2c1
inactive: [4] 98 % of control | [5] 108 % of control | [6] 120 % of control | dose: 400.0 mg/kg/injection, schedule: Q01DX009 (ip), vehicle: saline with Tween-80 120 % of control

CCCCn1c(Cl)c(/C=N\Nc2ccccc2[N+](=O)[O-])c2ccccc21
inactive: dose: 100.0 mg/kg/injection, schedule: Q01DX001 (ip), vehicle: saline with Tween-80 93 % of control | dose: 200.0 mg/kg/injection, schedule: Q01DX001 (ip), vehicle: saline with Tween-80 90 % of control | dose: 400.0 mg/kg/injection, schedule: Q01DX001 (ip), vehicle: saline with Tween-80 93 % of control

CC(C)(C)OP(=O)(NN)OC(C)(C)C
inactive: [10] 101 % of control | [11] 108 % of control | [12] 99 % of control

Cc1nc2c([N+](=O)[O-])c(N3CCCCC3)c([N+](=O)[O-])cc2[nH]1
inactive: dose: 100.0 mg/kg/injection, schedule: Q04DX002 (ip), vehicle: saline with Tween-80 101 % of control | dose: 200.0 mg/kg/injection, schedule: Q04DX002 (ip), vehicle: saline with Tween-80 104 % of control

C1CCC([Se][Se]C2CCCCC2)CC1
inactive: [1] 103 % of control | [2] 94 % of control

CCc1ccc(C(=O)O)cc1S(=O)(=O)Cl
inactive: dose: 12.5 mg/kg/injection, schedule: Q01DX009 (ip), vehicle: saline sonified 95 % of control | dose: 25.0 mg/kg/injection, schedule: Q01DX009 (ip), vehicle: saline sonified 86 % of control | dose: 50.0 mg/kg/injection, schedule: Q01DX009 (ip), vehicle: saline sonified 95 % of control

OC(C(=S)N1CCOCC1)(c1ccccc1)c1ccccc1
inactive: [1] 105 % of control | [2] 103 % of control | [3] 98 % of control

CCOC(=O)c1c(O)c(C)c(=O)n2c1[nH]c1cc(C)c(C)cc12
inactive: [8] 93 % of control | [9] 98 % of control

OC(Cc1cccnc1)(c1ccccc1)c1ccccc1
inactive: [1] 111 % of control | [2] 109 % of control | [3] 118 % of control

CC(NC(=O)OCc1ccccc1)C(=O)NC(CO)C(N)=O (stereo not drawn) (Cbz-Ala-Ser-NH2; configuration not given here)
inactive: [16] 97 % of control | [17] 98 % of control | [18] 102 % of control

CC(=O)O[C@@H]1C[C@@]2(C)C(C)(C)C(=O)C=C[C@]2(C)[C@H]2CC[C@]3(C)C(=CC(=O)C3c3ccoc3)[C@]12C (some centres not stated)
inactive: dose: 8.5 mg/kg/injection, schedule: Q01DX005 (ip), vehicle: Klucel (hydroxypropylcellulose) (HPC) 104 % of control | dose: 17.0 mg/kg/injection, schedule: Q01DX005 (ip), vehicle: Klucel (hydroxypropylcellulose) (HPC) 96 % of control | dose: 34.0 mg/kg/injection, schedule: Q01DX005 (ip), vehicle: Klucel (hydroxypropylcellulose) (HPC) 98 % of control | dose: 68.0 mg/kg/injection, schedule: Q01DX005 (ip), vehicle: Klucel (hydroxypropylcellulose) (HPC) 92 % of control | dose: 136.0 mg/kg/injection, schedule: Q01DX005 (ip), vehicle: Klucel (hydroxypropylcellulose) (HPC) 92 % of control

Fc1ccc(Nc2c3ccccc3nc3c2cnn3-c2ccccc2)cc1
inactive: [16] 91 % of control | [13] 86 % of control | [17] 87 % of control | [18] 87 % of control | [19] 90 % of control
